{
  "source": "the supplement of paper PMC10307832",
  "assay_in_all_cases": "relative viability (nuclei count vs DMSO), 5 days (fraction); higher = more cells survive",
  "key": {"201T": {"system": "201T", "outline": "(§1)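 Lung cancer cell lines in 1536-well plates got either a single drug or a fixed anchor-drug dose together with five library-drug doses (not always all listed) in √10 steps, by pin tool, on the day after seeding. Nuclei were counted after 5 days, and relative viability is the treated-to-vehicle ratio of nuclei counts. Values are medians of duplicate plates.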"}, "EKVX": {"system": "EKVX", "outline": "as §1"}, "NCI-H2023": {"system": "NCI-H2023", "outline": "as §1"}, "NCI-H727": {"system": "NCI-H727", "outline": "as §1"}, "EMC-BAC-2": {"system": "EMC-BAC-2", "outline": "as §1"}, "BEN": {"system": "BEN", "outline": "as §1"}, "NCI-H1651": {"system": "NCI-H1651", "outline": "as §1"}, "LK-2": {"system": "LK-2", "outline": "as §1"}, "COR-L 105": {"system": "COR-L 105", "outline": "as §1"}, "HCC-15": {"system": "HCC-15", "outline": "as §1"}, "NCI-H322M": {"system": "NCI-H322M", "outline": "as §1"}, "PC-3 [JPC-3]": {"system": "PC-3 [JPC-3]", "outline": "as §1"}, "NCI-H838": {"system": "NCI-H838", "outline": "as §1"}, "HCC-44": {"system": "HCC-44", "outline": "as §1"}, "NCI-H460": {"system": "NCI-H460", "outline": "as §1"}, "CAL-12T": {"system": "CAL-12T", "outline": "as §1"}, "NCI-H520": {"system": "NCI-H520", "outline": "as §1"}, "LU99A": {"system": "LU99A", "outline": "as §1"}},
  "data": [
    {"smiles": "CCNC(=O)c1noc(-c2cc(C(C)C)c(O)cc2O)c1-c1ccc(CN2CCOCC2)cc1", "note": "[Luminespib] + CC1(C)CCC(c2ccc(Cl)cc2)=C(CN2CCN(c3ccc(C(=O)NS(=O)(=O)c4ccc(N[C@H](CCN5CCOCC5)CSc5ccccc5)c(S(=O)(=O)C(F)(F)F)c4)cc3)CC2)C1 [Navitoclax] (partner 0.5 µM)", "values": [
      {"measurement": "relative viability", "setting": "201T; first compound 0.002 µM", "result": 1.17},
      {"measurement": "relative viability", "setting": "201T; first compound 0.006325 µM", "result": 1.18},
      {"measurement": "relative viability", "setting": "201T; first compound 0.02 µM", "result": 1.13},
      {"measurement": "relative viability", "setting": "201T; first compound 0.06325 µM", "result": 1.15},
      {"measurement": "relative viability", "setting": "201T; first compound 0.2 µM", "result": 1.18},
      {"measurement": "relative viability", "setting": "EKVX; first compound 0.002 µM", "result": 0.922},
      {"measurement": "relative viability", "setting": "EKVX; first compound 0.006325 µM", "result": 0.801},
      {"measurement": "relative viability", "setting": "EKVX; first compound 0.02 µM", "result": 0.677},
      {"measurement": "relative viability", "setting": "EKVX; first compound 0.06325 µM", "result": 0.518},
      {"measurement": "relative viability", "setting": "EKVX; first compound 0.2 µM", "result": 0.0817},
      {"measurement": "relative viability", "setting": "NCI-H2023; first compound 0.002 µM", "result": 0.969},
      {"measurement": "relative viability", "setting": "NCI-H2023; first compound 0.006325 µM", "result": 1.11},
      {"measurement": "relative viability", "setting": "NCI-H2023; first compound 0.02 µM", "result": 0.99},
      {"measurement": "relative viability", "setting": "NCI-H2023; first compound 0.06325 µM", "result": 0.0933},
      {"measurement": "relative viability", "setting": "NCI-H2023; first compound 0.2 µM", "result": 0.0995},
      {"measurement": "relative viability", "setting": "NCI-H727; first compound 0.002 µM", "result": 0.43},
      {"measurement": "relative viability", "setting": "NCI-H727; first compound 0.006325 µM", "result": 0.449},
      {"measurement": "relative viability", "setting": "NCI-H727; first compound 0.02 µM", "result": 0.408},
      {"measurement": "relative viability", "setting": "NCI-H727; first compound 0.06325 µM", "result": 0.218},
      {"measurement": "relative viability", "setting": "NCI-H727; first compound 0.2 µM", "result": 0.27},
      {"measurement": "relative viability", "setting": "EMC-BAC-2; first compound 0.002 µM", "result": 1.15},
      {"measurement": "relative viability", "setting": "EMC-BAC-2; first compound 0.006325 µM", "result": 1.09},
      {"measurement": "relative viability", "setting": "EMC-BAC-2; first compound 0.02 µM", "result": 1.12},
      {"measurement": "relative viability", "setting": "EMC-BAC-2; first compound 0.06325 µM", "result": 1.16},
      {"measurement": "relative viability", "setting": "EMC-BAC-2; first compound 0.2 µM", "result": 1.13},
      {"measurement": "relative viability", "setting": "BEN; first compound 0.002 µM", "result": 0.0714},
      {"measurement": "relative viability", "setting": "BEN; first compound 0.006325 µM", "result": 0.0602},
      {"measurement": "relative viability", "setting": "BEN; first compound 0.02 µM", "result": 0.0673},
      {"measurement": "relative viability", "setting": "BEN; first compound 0.06325 µM", "result": 0.0655},
      {"measurement": "relative viability", "setting": "BEN; first compound 0.2 µM", "result": 0.0846},
      {"measurement": "relative viability", "setting": "NCI-H1651; first compound 0.002 µM", "result": 0.967},
      {"measurement": "relative viability", "setting": "NCI-H1651; first compound 0.006325 µM", "result": 1.1},
      {"measurement": "relative viability", "setting": "NCI-H1651; first compound 0.02 µM", "result": 1.08},
      {"measurement": "relative viability", "setting": "NCI-H1651; first compound 0.06325 µM", "result": 0.18},
      {"measurement": "relative viability", "setting": "NCI-H1651; first compound 0.2 µM", "result": 0.144},
      {"measurement": "relative viability", "setting": "LK-2; first compound 0.002 µM", "result": 0.826},
      {"measurement": "relative viability", "setting": "LK-2; first compound 0.006325 µM", "result": 0.936},
      {"measurement": "relative viability", "setting": "LK-2; first compound 0.02 µM", "result": 0.571},
      {"measurement": "relative viability", "setting": "LK-2; first compound 0.06325 µM", "result": 0.163},
      {"measurement": "relative viability", "setting": "LK-2; first compound 0.2 µM", "result": 0.159},
      {"measurement": "relative viability", "setting": "COR-L 105; first compound 0.002 µM", "result": 0.729},
      {"measurement": "relative viability", "setting": "COR-L 105; first compound 0.006325 µM", "result": 0.696},
      {"measurement": "relative viability", "setting": "COR-L 105; first compound 0.02 µM", "result": 1.12},
      {"measurement": "relative viability", "setting": "COR-L 105; first compound 0.06325 µM", "result": 0.278},
      {"measurement": "relative viability", "setting": "COR-L 105; first compound 0.2 µM", "result": 0.234},
      {"measurement": "relative viability", "setting": "HCC-15; first compound 0.002 µM", "result": 0.647},
      {"measurement": "relative viability", "setting": "HCC-15; first compound 0.006325 µM", "result": 0.708},
      {"measurement": "relative viability", "setting": "HCC-15; first compound 0.02 µM", "result": 0.755},
      {"measurement": "relative viability", "setting": "HCC-15; first compound 0.06325 µM", "result": 0.44},
      {"measurement": "relative viability", "setting": "HCC-15; first compound 0.2 µM", "result": 0.419},
      {"measurement": "relative viability", "setting": "NCI-H322M; first compound 0.002 µM", "result": 1.14},
      {"measurement": "relative viability", "setting": "NCI-H322M; first compound 0.006325 µM", "result": 1.09},
      {"measurement": "relative viability", "setting": "NCI-H322M; first compound 0.02 µM", "result": 1.02},
      {"measurement": "relative viability", "setting": "NCI-H322M; first compound 0.06325 µM", "result": 1.16},
      {"measurement": "relative viability", "setting": "NCI-H322M; first compound 0.2 µM", "result": 1.28},
      {"measurement": "relative viability", "setting": "PC-3 [JPC-3]; first compound 0.002 µM", "result": 0.818},
      {"measurement": "relative viability", "setting": "PC-3 [JPC-3]; first compound 0.006325 µM", "result": 0.81},
      {"measurement": "relative viability", "setting": "PC-3 [JPC-3]; first compound 0.02 µM", "result": 0.648},
      {"measurement": "relative viability", "setting": "PC-3 [JPC-3]; first compound 0.06325 µM", "result": 0.847},
      {"measurement": "relative viability", "setting": "PC-3 [JPC-3]; first compound 0.2 µM", "result": 0.739},
      {"measurement": "relative viability", "setting": "NCI-H838; first compound 0.002 µM", "result": 1.3},
      {"measurement": "relative viability", "setting": "NCI-H838; first compound 0.006325 µM", "result": 1.12},
      {"measurement": "relative viability", "setting": "NCI-H838; first compound 0.02 µM", "result": 1.07},
      {"measurement": "relative viability", "setting": "NCI-H838; first compound 0.06325 µM", "result": 0.18},
      {"measurement": "relative viability", "setting": "NCI-H838; first compound 0.2 µM", "result": 0.193},
      {"measurement": "relative viability", "setting": "HCC-44; first compound 0.002 µM", "result": 0.943},
      {"measurement": "relative viability", "setting": "HCC-44; first compound 0.006325 µM", "result": 0.99},
      {"measurement": "relative viability", "setting": "HCC-44; first compound 0.02 µM", "result": 1.18},
      {"measurement": "relative viability", "setting": "HCC-44; first compound 0.06325 µM", "result": 0.957},
      {"measurement": "relative viability", "setting": "HCC-44; first compound 0.2 µM", "result": 0.129},
      {"measurement": "relative viability", "setting": "NCI-H460; first compound 0.002 µM", "result": 1.23},
      {"measurement": "relative viability", "setting": "NCI-H460; first compound 0.006325 µM", "result": 1.01},
      {"measurement": "relative viability", "setting": "NCI-H460; first compound 0.02 µM", "result": 0.0537},
      {"measurement": "relative viability", "setting": "NCI-H460; first compound 0.06325 µM", "result": 0.0176},
      {"measurement": "relative viability", "setting": "NCI-H460; first compound 0.2 µM", "result": 0.0134},
      {"measurement": "relative viability", "setting": "CAL-12T; first compound 0.002 µM", "result": 1.47},
      {"measurement": "relative viability", "setting": "CAL-12T; first compound 0.006325 µM", "result": 1.23},
      {"measurement": "relative viability", "setting": "CAL-12T; first compound 0.02 µM", "result": 0.491},
      {"measurement": "relative viability", "setting": "CAL-12T; first compound 0.06325 µM", "result": 0.106},
      {"measurement": "relative viability", "setting": "CAL-12T; first compound 0.2 µM", "result": 0.116},
      {"measurement": "relative viability", "setting": "NCI-H520; first compound 0.002 µM", "result": 1.01},
      {"measurement": "relative viability", "setting": "NCI-H520; first compound 0.006325 µM", "result": 1},
      {"measurement": "relative viability", "setting": "NCI-H520; first compound 0.02 µM", "result": 1.1},
      {"measurement": "relative viability", "setting": "NCI-H520; first compound 0.06325 µM", "result": 0.177},
      {"measurement": "relative viability", "setting": "NCI-H520; first compound 0.2 µM", "result": 0.167},
      {"measurement": "relative viability", "setting": "LU99A; first compound 0.002 µM", "result": 0.878},
      {"measurement": "relative viability", "setting": "LU99A; first compound 0.006325 µM", "result": 0.815},
      {"measurement": "relative viability", "setting": "LU99A; first compound 0.02 µM", "result": 0.496},
      {"measurement": "relative viability", "setting": "LU99A; first compound 0.06325 µM", "result": 0.253},
      {"measurement": "relative viability", "setting": "LU99A; first compound 0.2 µM", "result": 0.119}
    ]}
  ]
}
